Among the data in publication PMC4082028 (Biochemistry, 2013) are Kd values, retold here.

The assay has as its target Aβ40 (amyloid β-protein, monomer) (Homo sapiens, UniProt P05067). In words: […]-1H HSQC NMR titration. The class given is binding.

Aβ40 (amyloid β-protein, monomer), sequence (P05067 672-711 limits assumed): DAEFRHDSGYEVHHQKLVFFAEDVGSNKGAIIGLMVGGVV

In the case of `COc1ccc(/C=C/C(=O)Nc2ccccc2C(=O)O)cc1OC` [tranilast, N-[3,4-Dimethoxycinnamoyl]-anthranilic acid], the Kd – broadly, a measure of binding affinity in units of concentration – is 310 ± 130 µM.
